# Test results published in ChEMBL document CHEMBL1201862, “PubChem BioAssay data set” (2004).
# Calls of active or inactive are those of the source.
# Columns and labels:
# Mu-type opioid receptor = Mu-type opioid receptor (Homo sapiens, UniProt P35372); assay type: functional, cell-based;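 further: U2OS cells with beta-arrestin recruitment to OPRM1 by beta-gal complementation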
# [1] = target: 5-hydroxytryptamine receptor 2A (Mus musculus, UniProt P35363); assay type: functional, cell-based;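 further: CHO-K1 cells with tagged receptor and beta-arrestin; agonist potency measured as compound-induced activation of the receptor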
# Melanocortin receptor 4 = Melanocortin receptor 4 (Homo sapiens, UniProt P32245); assay type: functional, cell-based;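 further: Cell-based assay with luminescence read-out, confirmatory dose-response testing for agonist activity of biased ligands at MC4R; human U2OS cells with tagged receptor and beta-arrestin; potency of agonists that increase receptor coupling to beta-arrestin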
# [2] = target: Potassium voltage-gated channel subfamily KQT member 2 (Rattus norvegicus, UniProt O88943); test: KCNQ2 potassium channel inhibitors, dose response, cell-based, automated electrophysiology, set II, rat KCNQ2 (AID 588637); assay type: functional
# [3] = target: T1, Kappa-type opioid receptor (Homo sapiens, UniProt P41145); assay type: functional
# Beta-galactosidase = Beta-galactosidase (Escherichia coli, UniProt Q8VNN2); assay type: functional
# [4] = target: T1, Kappa-type opioid receptor; assay type: functional; remark: listed apart in the source
# [5] = inhibitors of PGC1a acetylation in cells, dose response, cell-based, cherry-picked samples (AID 720514); assay type: functional;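 further: potency may reflect raised or lowered acetylation signal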
# [6] = target: Voltage-dependent T-type calcium channel subunit alpha-1H (Homo sapiens, UniProt O95180); assay type: functional;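 further: channel activity triggered by adding a high calcium stimulation buffer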
# [7] = target: T2, Adenosylmethionine-8-amino-7-oxononanoate aminotransferase (Mycobacterium tuberculosis, UniProt P9WQ81); test: Mycobacterium tuberculosis BioA enzyme inhibitor Measured in Biochemical System Using Plate Reader - 2163-02_Inhibitor_Dose_CherryPick_Activity.; assay type: functional, Mycobacterium tuberculosis UT205
# T2 sequence (P9WQ81 whole entry): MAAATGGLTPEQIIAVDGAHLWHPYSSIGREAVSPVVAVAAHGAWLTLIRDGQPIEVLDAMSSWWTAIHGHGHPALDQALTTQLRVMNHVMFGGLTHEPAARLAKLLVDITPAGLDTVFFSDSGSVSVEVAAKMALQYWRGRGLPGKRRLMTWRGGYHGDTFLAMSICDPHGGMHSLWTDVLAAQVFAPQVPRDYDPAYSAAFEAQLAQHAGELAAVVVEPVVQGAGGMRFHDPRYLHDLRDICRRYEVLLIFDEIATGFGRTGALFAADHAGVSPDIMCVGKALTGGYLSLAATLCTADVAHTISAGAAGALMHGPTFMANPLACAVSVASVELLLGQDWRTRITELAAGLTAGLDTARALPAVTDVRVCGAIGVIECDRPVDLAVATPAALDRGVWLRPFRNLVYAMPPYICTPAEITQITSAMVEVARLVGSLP
# [8] = Luminescence Cell-Based Dose Retest to Confirm Inhibitors of Cancer Stem Cells. [Related pubchem assays (depositor defined):AID2717, AID2721]; assay type: functional; details: Homo sapiens
# INS1 = test: beta cell apoptosis inhibitors, cytokine rescue, dose response, luminescence, retest (AID 449756); assay type: functional, cell-based; details: Rattus norvegicus;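 further: cell death triggered by IL-1 beta plus TNF-alpha plus IFN-gamma mixture; protective hits raise ATP signal compared with cytokine alone wells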
# [9] = target: T3, Low molecular weight phosphotyrosine protein phosphatase (Homo sapiens, UniProt P24666); assay type: functional; details: read-out: IC50_Mean;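 further: Dose-response confirmation assay measuring inhibition of LMPTP enzyme activity by fluorescence intensity read-out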
# T3 sequence (P24666 whole entry): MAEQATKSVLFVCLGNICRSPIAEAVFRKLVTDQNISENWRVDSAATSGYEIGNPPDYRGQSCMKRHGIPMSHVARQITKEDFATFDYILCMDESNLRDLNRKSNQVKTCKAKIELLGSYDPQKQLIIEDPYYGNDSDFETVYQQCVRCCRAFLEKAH
# [10] = A549 cell cytotoxicity, dose response, cytotoxicity control, plate reader, cherry-pick, antagonist series (AID 743412); assay type: functional, cell-based
# [11] = HepG2 cell cytotoxicity, dose response, cytotoxicity control, plate reader, cherry-pick, antagonist series (AID 743416); assay type: functional, cell-based
# [12] = LGR2 antagonists, dose response, cell-based, HEK293, CRE-luciferase reporter, cherry pick, set 2 (AID 743343); assay type: functional;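 further: transfected cells were stimulated with diluted bursicon conditioned medium after compound addition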
# [13] = MC4R antagonists, dose response, counter-screen for LGR2 antagonist project, cell-based, plate reader, cherry pick (AID 743444); assay type: functional;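 further: transfected HEK 293 cells stimulated with alpha-MSH peptide; potency of inhibitors of the alpha-MSH evoked signal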
# [14] = HEK293 cell cytotoxicity, dose response, cytotoxicity control, plate reader, cherry-picked samples (AID 743446); assay type: functional, cell-based
# Vero [15] = test: cells; assay type: functional, cell-based; details: Chlorocebus sabaeus
# Vero [16] = test: cells; assay type: functional; details: Chlorocebus sabaeus
# Fatty acid synthase = Fatty acid synthase (Homo sapiens, UniProt P49327); test: FAS thioesterase domain inhibitors, dose response, biochemical, kinetic fluorescence intensity (AID 624326); assay type: functional;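 further: rate of fluorescence rise from hydrolysis of a fluorogenic O-methyl fluorescein ester substrate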
# cells = assay type: functional, cell-based
# [17] = target: T4, Nuclear receptor subfamily 0 group B member 1 (Homo sapiens, UniProt P51843); assay type: functional, cell-based;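 further: HEK293T cells transfected with SF-1 and DAX-1 plus StAR promoter luciferase reporter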
# T4 sequence (P51843 whole entry): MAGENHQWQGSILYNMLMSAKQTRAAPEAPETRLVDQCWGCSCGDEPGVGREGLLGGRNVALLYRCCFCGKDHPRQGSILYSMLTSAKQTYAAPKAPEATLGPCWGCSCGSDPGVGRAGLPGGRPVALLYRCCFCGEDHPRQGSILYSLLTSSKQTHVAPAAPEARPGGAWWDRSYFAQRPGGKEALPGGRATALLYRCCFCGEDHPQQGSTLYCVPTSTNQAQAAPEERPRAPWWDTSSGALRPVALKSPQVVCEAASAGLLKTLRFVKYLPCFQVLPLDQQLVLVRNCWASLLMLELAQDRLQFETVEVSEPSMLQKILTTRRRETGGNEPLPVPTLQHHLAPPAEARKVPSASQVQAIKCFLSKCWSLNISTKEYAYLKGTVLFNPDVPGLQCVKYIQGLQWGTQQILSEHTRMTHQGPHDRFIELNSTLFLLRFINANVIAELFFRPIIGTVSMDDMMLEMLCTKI
# [18] = target: T5, DNA repair and recombination protein RAD54-like (Homo sapiens, UniProt Q92698); test: inhibitors of human RAD54 branch migration, confirmation, biochemical, fluorescence, cherry-picked samples, dose series (AID 651657); assay type: functional
# T5 sequence (Q92698 whole entry): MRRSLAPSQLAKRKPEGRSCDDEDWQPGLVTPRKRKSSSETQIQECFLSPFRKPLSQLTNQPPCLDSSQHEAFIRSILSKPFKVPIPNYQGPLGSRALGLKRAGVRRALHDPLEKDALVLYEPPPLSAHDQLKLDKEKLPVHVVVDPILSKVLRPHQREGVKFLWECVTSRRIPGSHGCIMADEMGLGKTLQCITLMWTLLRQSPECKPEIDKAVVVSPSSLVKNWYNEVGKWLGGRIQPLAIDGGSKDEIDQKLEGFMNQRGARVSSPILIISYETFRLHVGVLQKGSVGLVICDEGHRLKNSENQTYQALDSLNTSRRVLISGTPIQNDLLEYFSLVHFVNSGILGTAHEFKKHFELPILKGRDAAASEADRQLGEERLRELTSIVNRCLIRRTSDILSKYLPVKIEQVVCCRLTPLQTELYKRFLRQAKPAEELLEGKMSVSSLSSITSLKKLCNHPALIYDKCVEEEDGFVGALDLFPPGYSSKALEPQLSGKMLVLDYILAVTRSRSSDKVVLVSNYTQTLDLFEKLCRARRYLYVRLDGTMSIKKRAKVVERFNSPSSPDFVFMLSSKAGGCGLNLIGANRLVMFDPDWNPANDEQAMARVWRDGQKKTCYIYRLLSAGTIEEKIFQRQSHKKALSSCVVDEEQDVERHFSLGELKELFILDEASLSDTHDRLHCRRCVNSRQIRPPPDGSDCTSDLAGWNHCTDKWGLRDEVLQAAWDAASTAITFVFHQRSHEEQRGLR
# [19] = target: T6, DNA repair protein RAD52 homolog (Homo sapiens, UniProt P43351); assay type: functional, biochemical
# T6 sequence (P43351 whole entry): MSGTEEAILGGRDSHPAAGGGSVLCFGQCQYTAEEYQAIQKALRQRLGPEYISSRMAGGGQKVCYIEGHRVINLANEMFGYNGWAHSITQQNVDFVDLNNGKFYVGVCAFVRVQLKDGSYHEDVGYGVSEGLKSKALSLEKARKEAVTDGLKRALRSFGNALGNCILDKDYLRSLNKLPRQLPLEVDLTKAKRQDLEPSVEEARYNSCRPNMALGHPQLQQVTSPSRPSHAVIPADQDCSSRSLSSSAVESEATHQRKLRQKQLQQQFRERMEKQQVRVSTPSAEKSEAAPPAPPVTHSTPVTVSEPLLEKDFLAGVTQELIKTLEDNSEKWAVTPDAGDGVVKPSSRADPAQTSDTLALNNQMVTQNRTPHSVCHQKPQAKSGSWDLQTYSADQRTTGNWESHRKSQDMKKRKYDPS
# Chain of Mu-type opioid receptor (P35372 whole entry): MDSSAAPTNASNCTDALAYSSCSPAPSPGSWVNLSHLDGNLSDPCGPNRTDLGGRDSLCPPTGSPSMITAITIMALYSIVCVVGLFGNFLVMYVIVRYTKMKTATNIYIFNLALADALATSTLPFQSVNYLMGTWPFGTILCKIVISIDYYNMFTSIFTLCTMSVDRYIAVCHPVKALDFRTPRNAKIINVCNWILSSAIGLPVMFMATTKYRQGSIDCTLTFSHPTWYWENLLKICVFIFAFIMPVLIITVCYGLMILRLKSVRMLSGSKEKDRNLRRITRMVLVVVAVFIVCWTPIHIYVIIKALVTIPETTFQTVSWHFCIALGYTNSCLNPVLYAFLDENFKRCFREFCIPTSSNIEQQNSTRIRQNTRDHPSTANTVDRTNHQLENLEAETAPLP
# Chain of 5-hydroxytryptamine receptor 2A (P35363 whole entry): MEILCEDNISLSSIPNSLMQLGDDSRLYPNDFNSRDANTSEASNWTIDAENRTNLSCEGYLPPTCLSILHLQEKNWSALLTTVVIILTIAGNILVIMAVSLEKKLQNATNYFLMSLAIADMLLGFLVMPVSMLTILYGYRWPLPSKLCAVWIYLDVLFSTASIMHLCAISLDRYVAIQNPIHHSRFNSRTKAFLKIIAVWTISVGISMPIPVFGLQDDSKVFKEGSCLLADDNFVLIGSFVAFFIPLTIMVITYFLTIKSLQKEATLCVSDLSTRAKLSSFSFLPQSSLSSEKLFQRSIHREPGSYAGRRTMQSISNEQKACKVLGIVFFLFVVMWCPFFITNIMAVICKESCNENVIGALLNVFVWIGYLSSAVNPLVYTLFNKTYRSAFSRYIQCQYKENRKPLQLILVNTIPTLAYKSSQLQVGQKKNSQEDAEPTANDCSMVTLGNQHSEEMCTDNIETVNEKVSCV
# T1 sequence (P41145 whole entry): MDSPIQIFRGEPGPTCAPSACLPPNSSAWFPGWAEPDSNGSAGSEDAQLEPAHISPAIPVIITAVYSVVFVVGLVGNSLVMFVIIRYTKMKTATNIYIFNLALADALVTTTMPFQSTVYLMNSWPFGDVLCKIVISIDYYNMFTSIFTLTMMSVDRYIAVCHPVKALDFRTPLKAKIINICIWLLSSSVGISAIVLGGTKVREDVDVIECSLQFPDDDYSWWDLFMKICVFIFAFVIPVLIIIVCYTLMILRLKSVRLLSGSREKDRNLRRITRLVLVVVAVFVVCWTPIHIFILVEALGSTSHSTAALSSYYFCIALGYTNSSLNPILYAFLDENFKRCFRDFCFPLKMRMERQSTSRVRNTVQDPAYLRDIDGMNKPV
# Chain of Melanocortin receptor 4 (P32245 whole entry): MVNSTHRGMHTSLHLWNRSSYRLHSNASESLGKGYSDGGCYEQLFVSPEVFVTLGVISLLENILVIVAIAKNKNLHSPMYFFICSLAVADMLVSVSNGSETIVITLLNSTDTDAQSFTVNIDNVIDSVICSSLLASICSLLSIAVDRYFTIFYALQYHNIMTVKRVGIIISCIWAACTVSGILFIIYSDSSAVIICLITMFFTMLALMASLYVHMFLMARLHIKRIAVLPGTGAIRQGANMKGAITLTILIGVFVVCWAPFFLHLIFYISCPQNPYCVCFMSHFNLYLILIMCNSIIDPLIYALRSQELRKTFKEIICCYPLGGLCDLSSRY
# Chain of Potassium voltage-gated channel subfamily KQT member 2 (O88943 whole entry): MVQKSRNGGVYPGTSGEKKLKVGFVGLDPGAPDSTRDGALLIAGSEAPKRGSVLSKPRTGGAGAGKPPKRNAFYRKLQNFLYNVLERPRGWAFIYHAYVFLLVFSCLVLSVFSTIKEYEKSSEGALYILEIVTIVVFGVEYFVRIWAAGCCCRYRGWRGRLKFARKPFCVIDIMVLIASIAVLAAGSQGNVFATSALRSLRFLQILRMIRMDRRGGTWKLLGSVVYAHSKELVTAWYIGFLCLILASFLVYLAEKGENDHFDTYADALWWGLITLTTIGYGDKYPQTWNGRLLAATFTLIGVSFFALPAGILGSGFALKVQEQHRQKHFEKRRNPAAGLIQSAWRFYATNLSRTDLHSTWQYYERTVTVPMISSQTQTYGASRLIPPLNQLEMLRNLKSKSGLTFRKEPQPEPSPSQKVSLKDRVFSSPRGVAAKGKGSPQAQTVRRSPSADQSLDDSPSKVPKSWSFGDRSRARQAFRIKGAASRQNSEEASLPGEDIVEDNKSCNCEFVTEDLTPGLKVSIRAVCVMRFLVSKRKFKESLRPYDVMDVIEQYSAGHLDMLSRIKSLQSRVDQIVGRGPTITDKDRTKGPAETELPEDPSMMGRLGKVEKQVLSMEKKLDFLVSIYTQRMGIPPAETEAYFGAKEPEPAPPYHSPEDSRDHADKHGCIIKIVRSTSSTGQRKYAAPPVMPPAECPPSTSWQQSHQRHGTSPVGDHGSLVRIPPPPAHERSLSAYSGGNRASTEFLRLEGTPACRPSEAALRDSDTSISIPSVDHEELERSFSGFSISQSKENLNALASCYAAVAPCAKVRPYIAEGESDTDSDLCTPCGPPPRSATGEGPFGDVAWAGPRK
# Chain of Beta-galactosidase (Q8VNN2 whole entry): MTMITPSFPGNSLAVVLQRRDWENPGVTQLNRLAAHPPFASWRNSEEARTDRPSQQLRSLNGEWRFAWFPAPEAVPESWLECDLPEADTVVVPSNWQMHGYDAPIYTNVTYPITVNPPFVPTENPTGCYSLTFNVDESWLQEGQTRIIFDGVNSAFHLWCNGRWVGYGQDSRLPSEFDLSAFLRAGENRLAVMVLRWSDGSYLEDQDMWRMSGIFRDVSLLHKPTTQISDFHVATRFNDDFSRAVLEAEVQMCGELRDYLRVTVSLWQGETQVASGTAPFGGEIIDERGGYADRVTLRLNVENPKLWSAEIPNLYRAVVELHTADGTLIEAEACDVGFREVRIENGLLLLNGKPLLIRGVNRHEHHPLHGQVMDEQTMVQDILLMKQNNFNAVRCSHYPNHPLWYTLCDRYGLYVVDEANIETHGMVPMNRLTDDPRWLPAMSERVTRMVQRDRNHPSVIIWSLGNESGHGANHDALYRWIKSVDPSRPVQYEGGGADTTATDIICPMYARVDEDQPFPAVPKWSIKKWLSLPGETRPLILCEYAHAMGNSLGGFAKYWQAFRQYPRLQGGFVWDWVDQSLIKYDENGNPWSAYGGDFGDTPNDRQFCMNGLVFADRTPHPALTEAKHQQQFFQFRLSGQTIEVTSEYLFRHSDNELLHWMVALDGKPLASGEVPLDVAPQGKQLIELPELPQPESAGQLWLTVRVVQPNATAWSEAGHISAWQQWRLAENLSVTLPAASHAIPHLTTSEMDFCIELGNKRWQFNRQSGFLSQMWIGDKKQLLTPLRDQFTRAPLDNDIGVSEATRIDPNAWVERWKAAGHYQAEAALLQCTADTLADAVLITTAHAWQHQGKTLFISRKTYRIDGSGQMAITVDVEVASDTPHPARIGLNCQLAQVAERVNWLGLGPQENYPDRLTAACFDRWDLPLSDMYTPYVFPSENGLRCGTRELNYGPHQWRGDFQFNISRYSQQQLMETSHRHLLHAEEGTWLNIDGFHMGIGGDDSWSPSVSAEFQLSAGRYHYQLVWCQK
structure (smiles),measurement,setting,value
Clc1ccccc1CN1CCN(c2ccccc2)CC1,EC50,Mu-type opioid receptor,92.5 µM (inactive)
same,EC50,[1],0.553 µM (active)
N#C/C(=C\c1cn(CCOc2ccccc2)c2ccccc12)C(=O)NCc1ccco1,EC50,Melanocortin receptor 4,> 89.2 µM (inactive)
Cn1c(C(=O)N2CCc3ccccc3C2)cc2oc3ccccc3c21,IC50,[2],6.99 µM (active)
CCSc1nnc(NC(=O)c2csc3c2CCCC3)s1,EC50,Melanocortin receptor 4,> 89.2 µM (inactive)
COc1ccc(-n2nc(C#N)c(Cl)cc2=O)cc1,IC50,[3],7.21 µM (active)
same,EC50,Beta-galactosidase,> 31.5 µM (inactive)
same,IC50,[4],14 µM
same,AC50,[5],3.52 µM (active)
Cc1cccc(-c2nc(CN3CCCC(C(=O)NC4CCCCCC4)C3)c(C)o2)c1 (configuration not stated),EC50,[6],5.56 µM (active)
same,IC50,[2],7.19 µM (active)
CC(=O)c1ccc(C(=O)N2CCCC(Nc3ccccc3)C2)s1 (configuration not stated),AC50,[7],5.18 µM (active)
O=C(Nc1ccc(Cl)cc1)Nc1nnc(-c2ccncc2)s1,AC50,[8],1.17 µM (active)
same,AC50,INS1,3.54 µM (active)
same,IC50,[9],30.6 µM (inactive)
same,AC50,[10],15.5 µM (active)
same,AC50,[11],5.88 µM (active)
same,AC50,[12],3.51 µM (active)
same,AC50,[13],1.74 µM (active)
same,AC50,[14],2.98 µM (active)
Cc1ccc(-n2ncc3c(SCc4ccccn4)ncnc32)c(C)c1,IC50,Vero [15],1.6 µM (active)
same,CC50,Vero [16],> 25 µM (active)
Nc1n[nH]c(N2CCN(Cc3ccccc3)CC2)n1,EC50,Mu-type opioid receptor,92.5 µM (inactive)
same,EC50,[1],5.59 µM (active)
O=C(CC(c1ccccc1)c1ccccc1)NCC(O)c1ccc([N+](=O)[O-])cc1 (configuration not stated),IC50,Fatty acid synthase,13.5 µM (active)
Nc1nc(CN2CCN(c3ccccn3)CC2)nc(Nc2ccc(Cl)cc2)n1,EC50,Mu-type opioid receptor,92.5 µM (inactive)
same,EC50,[1],1.51 µM (active)
COc1cccc(/C=C/C(=O)NNC(=O)c2ccccc2)c1OC,IC50,cells,> 67.6 µM (inactive)
same,IC50,[17],> 67.6 µM (inactive)
CC(=O)Nc1cc(-c2cccc(NS(C)(=O)=O)c2)cn2c(-c3ccccc3)cnc12,EC50,Melanocortin receptor 4,> 89.2 µM (inactive)
OC[C@H]1O[C@H](c2nc(-c3nc(-c4cccs4)no3)cs2)C[C@@H]1O,IC50,cells,> 67.5 µM (inactive)
same,IC50,[17],> 67.5 µM (inactive)
O=C(NCc1ccco1)c1ccc(-c2ccc3nccn3c2)cc1,AC50,[7],1.64 µM (active)
O=C(c1ccc(C[S+]([O-])c2ccccc2Cl)o1)N1CCN(C2CCCCC2)CC1 (configuration not stated),IC50,cells,> 67.5 µM (inactive)
same,IC50,[17],> 67.5 µM (inactive)
COc1ccc(Cc2c(-c3ccc(OC)c(OC)c3)nc3c(C)cc(Br)cn23)c(C)c1,AC50,[7],6.62 µM (active)
same,AC50,[18],14.8 µM (active)
same,AC50,[19],15.5 µM (active)
Cc1nn(-c2ccccc2)c(O)c1/C=N/N1C(=O)c2cccc3cccc(c23)C1=O,IC50,[3],10.3 µM (active)
same,EC50,Beta-galactosidase,> 31.5 µM (inactive)
same,IC50,[4],> 32 µM
same,CC50,Vero [16],> 25 µM (active)
